In patent US7408039B2, “Kits for treatment of hematologic disorders” (The General Hospital Corporation, priority 1997, dated 2008):

What was measured:
[1] = cited from earlier work
[2] = test system: refractory non-Hodgkin's lymphoma; settings: five patients; Cy 50 mg/kg daily x4
Description: Median patient age was 30 (range 20-45) years. All patients had disease progression during salvage chemotherapy or radiation therapy.

Question: Which results are given for `O=P1(N(CCCl)CCCl)NCCCO1` (centres unmarked) [cyclophosphamide]?
Answer: post-chemotherapy hematopoietic recovery ([1]; 200 mg/kg, expected, following drug administration): approximately 2 weeks; patients developing diffuse maculopapular rash ([1]; 24-72 hours following cyclophosphamide): 10-20%; patients with some hematuria ([1]; at this dose level (50 mg/kg x 4)): Approximately 50%; incidence of hemorrhagic cystitis ([1]; cyclophosphamide 50 mg/kg on days -6 to -3): 20%; myeloablation ([1]; dose of 200 mg/kg): not myeloablative; time for rash to resolve ([1]; in vivo): 24 to 48 h; total dose at which fatal cardiac failure due to hemorrhagic necrosis can occur ([1]; total dose (7.6 grams/m^2)): ≥ 200 mg/kg; patients with reversible Cy cardiotoxicity [2]: 1 n
